Values quoted from earlier work, collected in patent US20190224118A1, “ORAL GASTRORETENTIVE FORMULATIONS AND USES THEREOF” (INTEC PHARMA LTD., priority 2016, published 2019).

SMILES	number of metabolites identified in urine (urine)	plasma levels of active 11-hydroxy metabolite, oral administration versus smoking (oral versus smoking)
C=C(C)[C@@H]1CCC(C)=C[C@H]1c1c(O)cc(CCCCC)cc1O [CBD, cannabidiol]	more than 33	
CCCCCc1cc(O)c2c(c1)OC(C)(C)[C@@H]1CCC(C)=C[C@@H]21 [Δ9-THC, Δ-9-tetrahydrocannabinol]		about three
